The text on data set [1]:
Different solvent systems such as oils and medium chain triglycerides, solubilizing agents, emulsifying agents (self-emulsifying) and surfactants for the liquid filled capsules were screened for their effectiveness in solubilizing ibuprofen and are listed in Tables 5 to 6.
The screening method involved the following steps:
2. Step T2: the sample was heated using a hot plate and stirrer to facilitate ibuprofen solubility in the vehicle and the samples were left overnight.
3. […] Additional ibuprofen was added by reheating selected T2 solutions until re-crystallization or precipitation was observed.
Observations on whether ibuprofen appeared as dissolved, a suspension (fine suspension) or crystallized (agglomerates) were reported.

The nature of data set [2]: Ibuprofen lysinate vehicle screening. The conditions noted are these: ibuprofen lysinate (IBL) in the excipient named; outcome in Comments cell beside.
Data set [3] can be described thus: Ibuprofen vehicle screening (single excipients). Format: physicochemical. The conditions noted are these: for Approx. Percentage of API that Resulted in Precipitate: ibuprofen USP in the excipient named, precipitate within approx. 24 h after cooling to room temperature, * = close to saturation point, only a few crystals. Here is the method: Initially, ibuprofen United States Pharmacopeia grade (USP) powder was mixed at room temperature with individual excipients being considered as shown in Table 1. Ibuprofen was incrementally added and mixed until a precipitate was observed. […] Observations were made daily to determine if the mixture would remain a solution or precipitate out within an approximately 24 hour period.

Data set [4] in a line: Water activity (Rotronic Hygrolab). Format: physicochemical. The conditions noted are these: water activity at 19.56-19.87 °C.

Like-named read-outs stand apart in the source and are kept apart here.

Consider Castor Oil, for which, in data set [1], the “Amt of API added” value was 257.8 mg and the Observation entry was “Solidify (T1)”.
For `OCC(O)CO` [Glycerin], the “Approximate Percentage of IBL salt added in powder form to excipient and heated” value in data set [2] turned out to be 2.2%. For the same compound, in data set [1], the “Amt of API added” value was 250.0 mg and the Observation result is “Turbid (T1)”. Moreover, the “Approx. Percentage of API that Resulted in Precipitate” value in data set [3] is on record as 2.5%.
As to `O` [Water], the “AW Reading” value in data set [4] is on record as 0.999.
`CC(O)CO` (stereo not drawn) [Propylene Glycol]: in data set [2], the “Approximate Percentage of IBL salt added in powder form to excipient and heated” value is given as 2.4%. In addition, in data set [1] (24 h), the “Amt of API added” value is 4000.0 mg and the Observation result is listed as “Crystallized (T3)”. Besides, in data set [3], the “Approx. Percentage of API that Resulted in Precipitate” value was 28 * %. Moreover, in data set [3] (ibuprofen USP in the single excipient named, melted in on hot plate, remained in solution approx. 24 h), the “Approx. Max. Percentage of API in Solution Tested” value stood at 17%.

Source of the values: patent US20080075767A1, “IBUPROFEN-CONTAINING LIQUID FILLED HARD CAPSULES” (priority 2006, published 2008).
